Reference: patent US20080140138A1, “Inhibition of inflammatory cytokine production by stimulation of brain muscarinic receptors” (priority 2002, published 2008)

What was measured:
[1] = system: vasoactive intestinal peptide; experiment: NovaScreen receptor binding panel; conditions: 10 μM, average of duplicate tubes
Experimental: (§1) Method of determining CNI-1493 receptor binding. CNI-1493 was tested at a single concentration (10 μM) in a panel of receptor binding assays by NovaScreen Biosciences Corporation (Hanover, Md.). Values were expressed as the percent inhibition of specific binding, and represented the average of duplicate tubes. Method of stereotactic intracerebroventricular injections. A rat model of intracerebroventricular (i.c.v.) injections was established in order to be able to directly deliver pharmacological agents into the brain of rats. This was necessary in order to separate drug effects on peripheral inflammation that occurred through central versus peripheral mechanisms. Lewis rats were anaesthetized with urethane (1 g/kg, i.p.) and xylazine (15 mg/rat, i.m. (intramuscular)). Rats were then placed in a stereotactic head frame (Stoelting, Wood Dale, Ill., USA). The incisor bar was adjusted until the plane defined by the lambda and bregma was parallel to the base plate. For i.c.v. injections the needle of a Hamilton syringe (25 μl) was positioned stereotactically above the lateral ventricle (0.2 mm and 1.5 mm posterior to bregma, 3.2 mm below the dura.) Solutions of the drugs tested were prepared in sterile endotoxin-free water, at the specified concentrations, and a 10-μl injection/rat was administered over 2 min, 1 h prior to either carrageenan injection, or to LPS.

[2] = biological target: Muscarinic, M1 (Human recombinant) (Homo sapiens, UniProt P11229); experiment: NovaScreen muscarinic receptor binding panel; conditions: 10 μM, average of duplicate tubes
Sequence of Muscarinic, M1 (Human recombinant) (P11229 whole entry): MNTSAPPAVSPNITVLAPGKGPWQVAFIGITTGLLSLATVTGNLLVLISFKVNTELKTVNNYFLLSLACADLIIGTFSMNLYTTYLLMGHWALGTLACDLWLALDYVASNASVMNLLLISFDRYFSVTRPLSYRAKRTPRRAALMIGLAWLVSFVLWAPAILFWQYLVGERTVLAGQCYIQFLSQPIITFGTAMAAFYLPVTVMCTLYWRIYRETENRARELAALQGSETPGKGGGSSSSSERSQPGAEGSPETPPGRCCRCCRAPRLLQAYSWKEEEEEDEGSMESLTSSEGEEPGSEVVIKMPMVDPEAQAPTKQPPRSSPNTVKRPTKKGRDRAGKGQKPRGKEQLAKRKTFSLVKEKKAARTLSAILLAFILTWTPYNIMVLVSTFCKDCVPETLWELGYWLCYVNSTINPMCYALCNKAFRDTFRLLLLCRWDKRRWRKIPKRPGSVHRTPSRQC
Experimental: (§2) Method of determining muscarinic receptor subtype. CNI-1493 was tested at a single concentration (10 μM) in a panel of muscarinic receptor binding assays by NovaScreen Biosciences Corporation (Hanover, Md.). Values were expressed as the percent inhibition of specific binding, and represented the average of duplicate tubes.

Muscarinic, M1 = experiment: NovaScreen muscarinic receptor binding panel; conditions: 10 μM, average of duplicate tubes
Experimental: as §2

[3] = biological target: Muscarinic, M2 (Human recombinant) (Homo sapiens, UniProt P08172); experiment: NovaScreen muscarinic receptor binding panel; conditions: 10 μM, average of duplicate tubes
Sequence of Muscarinic, M2 (Human recombinant) (P08172 whole entry): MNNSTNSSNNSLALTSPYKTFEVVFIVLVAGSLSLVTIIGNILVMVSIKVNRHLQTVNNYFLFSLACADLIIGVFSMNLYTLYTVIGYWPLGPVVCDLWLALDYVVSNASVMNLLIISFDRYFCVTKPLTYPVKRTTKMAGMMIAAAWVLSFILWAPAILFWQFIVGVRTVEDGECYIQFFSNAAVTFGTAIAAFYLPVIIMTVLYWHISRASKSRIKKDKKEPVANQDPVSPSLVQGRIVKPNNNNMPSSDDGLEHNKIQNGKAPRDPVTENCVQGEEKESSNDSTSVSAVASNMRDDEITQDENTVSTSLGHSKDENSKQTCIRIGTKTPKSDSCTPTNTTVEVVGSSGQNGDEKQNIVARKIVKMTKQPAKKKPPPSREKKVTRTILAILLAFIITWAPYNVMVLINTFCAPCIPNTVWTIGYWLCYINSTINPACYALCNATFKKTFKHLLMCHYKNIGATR
Experimental: as §2

Muscarinic, M2 = experiment: NovaScreen muscarinic receptor binding panel; conditions: 10 μM, average of duplicate tubes
Experimental: as §2

[4] = biological target: T1, Muscarinic, M3 (Human recombinant) (Homo sapiens, UniProt P20309); experiment: NovaScreen muscarinic receptor binding panel; conditions: 10 μM, average of duplicate tubes
T1 construct: NovaScreen Biosciences Corporation (contract laboratory that ran the assay)
T1 sequence (P20309 whole entry): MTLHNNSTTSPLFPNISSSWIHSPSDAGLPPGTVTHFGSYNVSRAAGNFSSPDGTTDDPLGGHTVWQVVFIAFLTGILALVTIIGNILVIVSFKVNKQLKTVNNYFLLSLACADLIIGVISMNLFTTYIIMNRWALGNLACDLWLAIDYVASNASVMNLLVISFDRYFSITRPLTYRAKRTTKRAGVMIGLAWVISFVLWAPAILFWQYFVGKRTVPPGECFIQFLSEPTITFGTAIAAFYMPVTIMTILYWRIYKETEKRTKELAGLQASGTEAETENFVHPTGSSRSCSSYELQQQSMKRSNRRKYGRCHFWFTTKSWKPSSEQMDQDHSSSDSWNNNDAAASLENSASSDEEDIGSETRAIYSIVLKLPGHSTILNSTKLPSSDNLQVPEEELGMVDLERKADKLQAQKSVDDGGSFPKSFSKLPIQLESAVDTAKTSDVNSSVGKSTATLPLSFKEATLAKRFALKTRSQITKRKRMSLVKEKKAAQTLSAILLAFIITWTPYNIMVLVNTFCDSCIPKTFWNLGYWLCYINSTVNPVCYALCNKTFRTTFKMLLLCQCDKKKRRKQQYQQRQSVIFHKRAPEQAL
Experimental: as §2

Muscarinic, M3 = experiment: NovaScreen muscarinic receptor binding panel; conditions: 10 μM, average of duplicate tubes
Experimental: as §2

[5] = biological target: T2, Muscarinic, M4 (Human recombinant) (Homo sapiens, UniProt P08173); experiment: NovaScreen muscarinic receptor binding panel; conditions: 10 μM, average of duplicate tubes
T2 construct: NovaScreen Biosciences Corporation (contract laboratory that ran the assay)
T2 sequence (P08173 whole entry): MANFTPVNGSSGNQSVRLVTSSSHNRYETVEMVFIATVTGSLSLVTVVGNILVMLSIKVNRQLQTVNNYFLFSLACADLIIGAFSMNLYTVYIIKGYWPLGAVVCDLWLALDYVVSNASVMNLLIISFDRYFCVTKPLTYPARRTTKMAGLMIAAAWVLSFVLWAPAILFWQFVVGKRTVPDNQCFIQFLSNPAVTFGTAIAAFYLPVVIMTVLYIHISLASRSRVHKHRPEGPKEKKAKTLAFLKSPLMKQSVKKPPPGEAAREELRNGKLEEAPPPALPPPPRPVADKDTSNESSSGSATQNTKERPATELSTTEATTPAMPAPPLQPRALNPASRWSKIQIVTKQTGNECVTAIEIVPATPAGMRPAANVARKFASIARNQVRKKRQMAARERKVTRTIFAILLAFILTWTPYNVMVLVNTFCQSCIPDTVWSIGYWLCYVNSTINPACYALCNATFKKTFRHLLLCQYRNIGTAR
Experimental: as §2

[6] = biological target: T3, Muscarinic, M5 (Human recombinant) (Homo sapiens, UniProt P08912); experiment: NovaScreen muscarinic receptor binding panel; conditions: 10 μM, average of duplicate tubes
T3 construct: NovaScreen Biosciences Corporation (contract laboratory that ran the assay)
T3 sequence (P08912 whole entry): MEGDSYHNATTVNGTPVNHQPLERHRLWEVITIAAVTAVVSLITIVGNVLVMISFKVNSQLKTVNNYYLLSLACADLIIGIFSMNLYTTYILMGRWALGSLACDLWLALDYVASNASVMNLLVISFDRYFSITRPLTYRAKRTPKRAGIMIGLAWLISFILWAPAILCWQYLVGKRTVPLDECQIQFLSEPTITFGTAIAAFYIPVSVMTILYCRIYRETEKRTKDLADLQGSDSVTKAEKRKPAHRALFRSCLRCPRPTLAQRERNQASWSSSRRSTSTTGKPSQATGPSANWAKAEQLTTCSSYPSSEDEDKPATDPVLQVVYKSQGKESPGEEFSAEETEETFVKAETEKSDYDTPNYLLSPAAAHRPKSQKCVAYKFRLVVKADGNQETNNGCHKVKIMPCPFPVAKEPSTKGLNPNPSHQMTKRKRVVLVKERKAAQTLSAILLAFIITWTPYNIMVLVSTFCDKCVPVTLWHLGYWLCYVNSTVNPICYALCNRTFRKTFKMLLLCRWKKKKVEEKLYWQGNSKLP
Experimental: as §2

LPS-induced serum TNF = LPS-induced serum TNF after i.c.v. drug injection, L929 bioactivity assay; type: in vivo, Lewis rats; conditions: 5 μg/rat i.c.v., 1 h before LPS 15 mg/kg i.v.; blood 2 h post LPS
Experimental: Method of stereotactic intracerebroventricular injections. […] Lewis rats were anaesthetized with urethane (1 g/kg, i.p.) and xylazine (15 mg/rat, i.m. (intramuscular)). Rats were then placed in a stereotactic head frame (Stoelting, Wood Dale, Ill., USA). The incisor bar was adjusted until the plane defined by the lambda and bregma was parallel to the base plate. For i.c.v. injections the needle of a Hamilton syringe (25 μl) was positioned stereotactically above the lateral ventricle (0.2 mm and 1.5 mm posterior to bregma, 3.2 mm below the dura.) Solutions of the drugs tested were prepared in sterile endotoxin-free water, at the specified concentrations, and a 10-μl injection/rat was administered over 2 min, 1 h prior to either carrageenan injection, or to LPS.
In one set of experiments, rats were injected by i.c.v. means with either saline (n=1), CNI-1493 (5 μg/rat, n=3), CNI-1493 plus atropine (5 μg/rat each), or atropine (5 μg/rat). LPS (15 mg/kg, i.v.) was given 1 h later. Blood was collected 2 h post LPS administration. Serum TNF was determined by the L929 assay.

[7] = system: carrageenan-induced hindpaw edema; experiment: Carrageenan-induced hindpaw edema; type: in vivo, Lewis rats; conditions: CNI-1493 5 μg/rat i.c.v., 1 h before carrageenan; edema 3 h post carrageenan
Experimental: as §1
The tested drugs, in either the carrageenan and/or LPS experiments, were: saline control; fluoxetine hydrochloride, (also known as Prozak) (0.01 mg/100 g); muscarine (50 μg/rat, 5 μg/rat, 0.5 μg/rat, 0.05 μg/rat, 0.005 μg/rat); 4-(N-[3-chlorophenyl]carbamoyloxy)-2-butynyltrimethylammonium chloride (also known as McN-A-343) (5 μg/rat); Muscarinic Toxin-3, (also known as MT-3) from Dendroaspis angusticeps snake venom (0.37 μg/rat); nicotine (10 μg/rat); CNI-1493 (1 μg/kg, 50 μg/rat); atropine (1 μg/kg, 5 μg/rat); CNI-1493 plus atropine (1 μg/kg of each of the drugs; 50 μg/rat, 5 μg/rat respectively); naloxone hydrochloride (2 μg/rat), CNI-1493 plus naloxone (50 μg/rat+5 μg/rat respectively); and morphine (20 μg/rat).
Method of carrageenan-induced hindpaw edema. Paw edema was induced in anaesthetized rats by injection of 1% solution of 1-carrageenan (100 μl) into the plantar surface of the left hindpaw. The right hindpaw was injected with the same volume of saline alone (as control). The thickness of the carrageenan-treated and saline-treated hindpaw was measured using a caliper at 3 h post carrageenan, and the difference between paw thickness calculated as an index of inflammation (paw swelling). Method of LPS injections and TNF determination. LPS (15 mg/kg, i.v.) was injected in the tail vein 1 h after drug injection. Blood was obtained 2 h post LPS injection by paraorbital bleeding. Serum TNF concentrations were determined by an L929 bioactivity assay. Method of assessing TNF by the L929 bioactivity assay. L929 cells were suspended in Dulbecco's minimal Eagle's medium (DMEM; GibcoBRL) supplemented with fetal bovine serum (10%; Hyclone) and penicillin/streptomycin (0.5%; Sigma Chemical Co.), and plated at 2×10^4 cells per well in 96-well flat-bottomed microtiter plates. After 24 h, media were respirated and replaced with medium containing cycloheximide (10 μg/ml; Sigma Chemical Co.) and the samples to be assayed/TNF standards. Plates were incubated overnight, at which time cell viability as a function of TNF concentration was assessed by the MTT assay. Absorbance values were converted to units per milliliter by comparison with a standard curve for rat TNF.
In a third set of experiments, rats were injected by i.c.v. means with either saline (n=4), CNI-1493 (5 μg/rat, n=3), CNI-1493 plus atropine (5 μg/rat each), or atropine (5 μg/rat). Carrageenan was given to the animals 1 h later, and paw edema was determined 3 h post carrageenan. […]

LPS-induced TNF release = experiment: Conditioning (CNI-1493 with bell ringing), LPS-induced TNF release, L929 assay; type: in vivo, Mice; conditions: CNI-1493 2.5 mg/kg i.p. with bell ringing vs. saline with bell ringing (Group 2 vs. Group 4; p=0.22); LPS 5 mg/kg i.p.
Experimental: Mice were grouped into four groups (n=4 animals/group). The conditioning training for Groups 2-4 consisted of morning and afternoon sessions. Mice in group 2 were together taken to a room, where each mouse was injected with CNI-1493 (2.5 mg/kg, i.p.). Simultaneously with the injection, each mouse was subjected to 45 seconds of bell ringing. Group 4 mice, similar to Group 2 mice, were subjected to control conditioning, whereby mice were injected with saline, instead of CNI-1493. Group 3 mice, like Group 2 mice, were subjected to saline injections but not bell ringing. This protocol was performed over a 10 day period, on days 1-4 and 8-10. On day 11, Group 1 mice were injected with CNI-1493 (2.5 mg/kg, i.p.). Also on day 11, 30 min after the Group 1 mice injections were performed, animals in all groups were injected with LPS (5 mg/kg, i.p.). After 2 hours, the mice were euthanized via CO2 inhalation, and blood was withdrawn. Serum TNF was determined by the L929 assay.

With `CC(=NNC(=N)N)c1cc(NC(=O)CCCCCCCCC(=O)Nc2cc(C(C)=NNC(=N)N)cc(C(C)=NNC(=N)N)c2)cc(C(C)=NNC(=N)N)c1.Cl.Cl.Cl.Cl` [CNI-1493, N,N′-bis(3,5-diacetylphenyl) decanediamide tetrakis (amidinohydrazone) tetrahydrochloride] as the compound, how does the “percent inhibition of specific binding” value [1] read?
The value was 58.5%.

And the Percent inhibition [2]?
The Percent inhibition was 72%.

What about the Percent inhibition (Muscarinic, M1) of the same compound?
The Percent inhibition was 83%.

And the Percent inhibition [3]?
Its Percent inhibition is 58%.

What about the Percent inhibition (Muscarinic, M2) of the same compound?
Its Percent inhibition is 85%.

What about the Percent inhibition [4] of the same compound?
Its Percent inhibition is 40%.

What about the Percent inhibition (Muscarinic, M3) of the same compound?
The Percent inhibition was 9%.

And the Percent inhibition [5]?
Its Percent inhibition is 57%.

What about the Percent inhibition [6] of the same compound?
The Percent inhibition was 43%.

What about the “inhibition of LPS-induced serum TNF levels” value (LPS-induced serum TNF) of the same compound?
The value was “more than 80%”.

What about the “inhibition of carrageenan-induced paw edema” value [7] of the same compound?
Its value is “significantly inhibits”.

What about the “reduction of mean LPS-induced TNF release by conditioning” value (LPS-induced TNF release) of the same compound?
The value was “about 60%”.
